Earlier results on 2 molecules are cited in patent publication US20040115708A1, “Method of screening agents for the treatment and prevention of cancer and cachexia and the new use of specific agents for the treatment and prevention of cancer and cachexia” (priority 2002, published 2004).

In series [1] the test system is 8-Hydroxy-deoxyguanosine (8-OH-dG) in lung DNA.
Series [2] has as its system cancer in NNK treated animals. Conditions: consumption of EGCG.

Regarding `CN(CCCC(=O)c1cccnc1)N=O` [NNK, 4-(methyInitrosamino)-1-(3-pyridyl)-1-butanone], the “8-OH-dG (hydroxyl radical-caused DNA adduct) level” value in series [1] (mice treated with NNK) is recorded as “elevated”.
On to (−)-epigallocatechin gallate, for which, in series [1] (consumption of EGCG, NNK treated animals), the “levels of 8-OH-dG in lung DNA” value is “significantly lowers”. Besides, the incidence of cancer entry in series [2] is given as “decreases”.
